From PubChem BioAssay (NCI)
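Abbreviation: GI50, concentration required for 50% inhibition of growth. Definition used: TGI = concentration required for complete inhibition of growth.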

Key:
Assay in all cases: growth of human tumour cells (NCI), 384-well format
[1] = system: SF-268 CNS
[2] = system: OVCAR-4 ovarian
[3] = system: OVCAR-8 ovarian
[4] = system: SNB-19 CNS
[5] = system: OVCAR-5 ovarian
[6] = system: HOP-62 NSCLC
[7] = system: HCT-15 colon
[8] = system: RPMI-8226 leukemia
[9] = system: CAKI-1 renal
[10] = system: HT29 colon
[11] = system: KM12 colon
[12] = system: T-47D breast
[13] = system: COLO 205 colon
[14] = system: M14 melanoma
[15] = system: SK-MEL-2 melanoma
[16] = system: SF-295 CNS
[17] = system: U251 glioblastoma
[18] = system: SR leukemia
[19] = system: UO-31 renal
[20] = system: LOX IMVI melanoma
[21] = system: NCI-H23 lung
[22] = system: SK-OV-3 ovarian
[23] = system: UACC-62 melanoma
[24] = system: HL-60(TB) leukemia
[25] = system: NCI-H522 lung
[26] = system: RXF 393 renal
[27] = system: MDA-MB-231 breast
[28] = system: NCI/ADR-RES ovarian
[29] = system: SF-539 CNS
[30] = system: NCI-H460 NSCLC
[31] = system: HCC-2998 colon
[32] = system: OVCAR-3 ovarian
[33] = system: HOP-92 NSCLC
[34] = system: BT-549 breast
[35] = system: UACC-257 melanoma
[36] = system: DU-145 prostate
[37] = system: IGROV1 ovarian
[38] = system: HCT-116 colon
[39] = system: TK-10 renal
[40] = system: SW-620 colon
[41] = system: A549 NSCLC
[42] = system: MDA-MB-435 melanoma
[43] = system: MOLT-4 leukemia
[44] = system: SN12C renal
[45] = system: MDA-MB-468 breast
[46] = system: ACHN renal
[47] = system: MALME-3M melanoma
[48] = system: K-562 leukemia
[49] = system: SK-MEL-28 melanoma
[50] = system: MCF7 breast
[51] = system: CCRF-CEM leukemia
[52] = system: 786-0 renal
[53] = system: NCI-H226 lung
[54] = system: SK-MEL-5 melanoma
[55] = system: NCI-H322M lung
[56] = system: A498 renal
[57] = system: PC-3 prostate

Compound: Cn1cc(S(=O)(=O)N2CCC3=Cc4c(cnn4-c4ccc(F)cc4)C[C@]3(C(=O)c3cc(C(F)(F)F)ccn3)C2)cn1
- GI50 [1]: > 100 µM
- TGI [1]: > 100 µM
- GI50 [2]: 3.97 µM
- TGI [2]: > 100 µM
- GI50 [3]: 46.8 µM
- TGI [3]: > 100 µM
- GI50 [4]: > 100 µM
- TGI [4]: > 100 µM
- GI50 [5]: > 100 µM
- TGI [5]: > 100 µM
- GI50 [6]: 5.17 µM
- TGI [6]: > 100 µM
- GI50 [7]: > 100 µM
- TGI [7]: > 100 µM
- GI50 [8]: 0.831 µM
- TGI [8]: 3.1 µM
- GI50 [9]: 25.6 µM
- TGI [9]: > 100 µM
- GI50 [10]: > 100 µM
- TGI [10]: > 100 µM
- GI50 [11]: 46.6 µM
- TGI [11]: > 100 µM
- GI50 [12]: 3.09 µM
- TGI [12]: > 100 µM
- GI50 [13]: > 100 µM
- TGI [13]: > 100 µM
- GI50 [14]: > 100 µM
- TGI [14]: > 100 µM
- GI50 [15]: 42.8 µM
- TGI [15]: > 100 µM
- GI50 [16]: 11.5 µM
- TGI [16]: > 100 µM
- GI50 [17]: 15.4 µM
- TGI [17]: > 100 µM
- GI50 [18]: 1.87 µM
- TGI [18]: 3.82 µM
- GI50 [19]: 11.8 µM
- TGI [19]: > 100 µM
- GI50 [20]: 49 µM
- TGI [20]: > 100 µM
- GI50 [21]: 1.34 µM
- TGI [21]: 4.6 µM
- GI50 [22]: 5.8 µM
- TGI [22]: > 100 µM
- GI50 [23]: 38.6 µM
- TGI [23]: > 100 µM
- GI50 [24]: 4.66 µM
- TGI [24]: 12.9 µM
- GI50 [25]: 3.19 µM
- TGI [25]: 81.2 µM
- GI50 [26]: 1.98 µM
- TGI [26]: 8.01 µM
- GI50 [27]: 53.3 µM
- TGI [27]: > 100 µM
- GI50 [28]: 7.38 µM
- TGI [28]: > 100 µM
- GI50 [29]: 54.3 µM
- TGI [29]: > 100 µM
- GI50 [30]: 3.12 µM
- TGI [30]: > 100 µM
- GI50 [31]: > 100 µM
- TGI [31]: > 100 µM
- GI50 [32]: 9.32 µM
- TGI [32]: > 100 µM
- GI50 [33]: 11.8 µM
- TGI [33]: > 100 µM
- GI50 [34]: 6.96 µM
- TGI [34]: 55.7 µM
- GI50 [35]: 7.32 µM
- TGI [35]: > 100 µM
- GI50 [36]: > 100 µM
- TGI [36]: > 100 µM
- GI50 [37]: 14.1 µM
- TGI [37]: > 100 µM
- GI50 [38]: 3.29 µM
- TGI [38]: > 100 µM
- GI50 [39]: 78.8 µM
- TGI [39]: > 100 µM
- GI50 [40]: > 100 µM
- TGI [40]: > 100 µM
- GI50 [41]: 8.76 µM
- TGI [41]: > 100 µM
- GI50 [42]: > 100 µM
- TGI [42]: > 100 µM
- GI50 [43]: 3.09 µM
- TGI [43]: 9.44 µM
- GI50 [44]: > 100 µM
- TGI [44]: > 100 µM
- GI50 [45]: 1.84 µM
- TGI [45]: 6.55 µM
- GI50 [46]: 31.6 µM
- TGI [46]: > 100 µM
- GI50 [47]: 19.2 µM
- TGI [47]: 71.1 µM
- GI50 [48]: 3.27 µM
- TGI [48]: > 100 µM
- GI50 [49]: > 100 µM
- TGI [49]: > 100 µM
- GI50 [50]: 8.88 µM
- TGI [50]: > 100 µM
- GI50 [51]: 4.73 µM
- TGI [51]: > 100 µM
- GI50 [52]: 66 µM
- TGI [52]: > 100 µM
- GI50 [53]: 20.3 µM
- TGI [53]: > 100 µM
- GI50 [54]: 7.3 µM
- TGI [54]: > 100 µM
- GI50 [55]: > 100 µM
- TGI [55]: > 100 µM
- GI50 [56]: 12.5 µM
- TGI [56]: > 100 µM
- GI50 [57]: 9.49 µM
- TGI [57]: > 100 µM
